Measured values as given in PMC10442743 (Dalton Transactions (Cambridge, England : 2003), 2023).
Where two headings read alike, the source gives them in different places.

Experiments:
L929 = test: MTT cytotoxicity assay, L929 fibroblasts (and selectivity index); assay type: cell-based, mouse; conditions: for SI (selectivity index): IC50 L929 divided by average IC50 of the breast cancer cell lines; for IC50: MTT
Protocol: (§1) The cytotoxicity of 1–11CA was assessed against human breast cancer MCF-7 and MDA-MB-231 cells, and non-tumorigenic adherent mouse fibroblast connective tissue L929 cells using the MTT assay after 24 and 72 h (Tables S5 ^† and Table 1, respectively).
(§2) Then, necessary dilutions were made using the supplement DMEM, to prepare the range of tested concentrations. Since DMSO was used to solubilize the compounds, a supplemented DMEM + DMSO (at the same percentage as in the sequential dilutions) was considered as a control in the 3-[4,5-dimetylthiazole-2-yl]-2,5-diphenyltetrazolium bromide (MTT) assay.
(§3) L929, MCF-7, and MDA-MB-231 cell lines were cultured in DMEM supplemented with 10% (v/v) FBS and 1% (v/v) of penicillin–streptomycin. The cells were incubated in a humidified chamber at 37 °C under saturated air with a 5% CO2 atmosphere. Cells were passed at 80%–90% of confluency with 0.25% (w/v) trypsin and the cell culture media was changed every 2–3 days.
(§4) The compounds were tested on two breast cancer cell lines (MCF-7 and MDA-MB-231) and L929 fibroblasts, used as a reference for the safety evaluation according to ISO 10993-1:2009 “Biological evaluation of medical devices”. Cells were seeded on sterile 96-well plates at 50 000 cells per well (L929) and 20 000 cells per well (MCF-7 and MDA-MB-231) in supplemented DMEM medium (100 μL) for 24 h. The culture medium was removed and new media containing different concentrations of the compounds (0–1000 μM) was added to the wells (100 μL). Control cells were incubated under the same conditions in the absence of a compound. Cells were incubated for 24 and 72 h under the same conditions described above. Then, the medium was removed, and the cells were incubated with 3-(4,5-dimethylthiazol-2-yl)-2,5-diphenyltetrazolium bromide (MTT; 0.5 mg mL^−1) for 3 h. After this time, the medium was removed, and formazan crystals were solubilized with DMSO (100 μL per well). The absorbance in each well was read on a SynergyTM HT Multimode microplate reader (BioTek Instruments; Winooski, VT, USA) at 570 and 630 nm (for background correction), and the cell viability was calculated according to the following equation (eqn (1)):1 [drawing 3] where OD570(sample) and OD630(sample) are the optical densities of the solutions containing the compounds and OD570(control) and OD630(control) are controls without compound.
(§5) Each apoptosis value determination represents the mean ± standard deviation of 2 independent assays. The IC50 values were obtained using GraphPad Prism software and ANOVA (analysis of variance) was performed to determine the statistical difference between the IC50 values of different cell lines.

MCF-7 [1] = test: MTT cytotoxicity assay, MCF-7 cells; assay type: cell-based, human; conditions: MTT
Protocol: as §1, §2, §3, §4, §5

MDA-MB-231 [2] = test: MTT cytotoxicity assay, MDA-MB-231 cells; assay type: cell-based, human; conditions: MTT
Protocol: as §1, §2, §3, §4, §5

[3] = n-octanol/water; ESI ref 13; cited from earlier work
MDA-MB-231 [4] = test: FITC Annexin V / 7-AAD apoptosis assay, MDA-MB-231; assay type: cell-based, human; conditions: 24 h at 24 h IC50 dose
Protocol: Apoptosis in MCF-7 and MDA-MB-231 cells was determined using FITC Annexin V with a 7-aminoactinomycin D (7-AAD) staining kit (BioLegend®, California, US) according to the manufacturer's instructions. […] Following incubation, the cells were washed with PBS twice and detached using 0.25% trypsin. After obtaining cell pellets by centrifugation (300g for 5 min), the cells were resuspended in 100 μL of PBS, followed by the addition of 10 μL of FITC Annexin V and 7-AAD, and then incubated for 15 min at room temperature while protected from light. After the incubation period, 200 μL of binding buffer was added to the cell suspension and the samples were analyzed immediately using a BD Accuri C6 flow cytometer with a minimum of 10 000 events. The assays were performed in quadruplicate and the results were analyzed with Accuri C6 analysis software.
Each cell viability result represents the mean ± standard deviation (SD) for n = 4 replicates in each of 3 independent assays, resulting in 12 independent values. Each apoptosis value determination represents the mean ± standard deviation of 2 independent assays. The IC50 values were obtained using GraphPad Prism software and ANOVA (analysis of variance) was performed to determine the statistical difference between the IC50 values of different cell lines.

[5] = Solubility in water (ICP-MS); conditions: 25 °C, limit of detection = 5 ppt
Protocol: sonication, the mixtures were stirred at 25 °C for 1 h. The saturated solutions were filtered
to remove any insoluble solids, dissolved in 0.5 mL of MilliQ water, and analyzed using
ICP-MS. Samples were submitted to acidic digestion with 2 mL of concentrated HNO3
min to heat to 100°C and keep at 100°C for 60 min. After the digestion, the sample
volumes were precisely adjusted to 5 mL with MilliQ water. Samples were further diluted
30 times with 2% HNO3 solution and their Ru content was analyzed by ICP-MS using
standard mode on NexIon 350 D ICP-MS instrument (PerkinElmer). Yttrium was added
as an internal standard at a concentration of 2 ppb to all the solution and Ru quantitation
was performed using an external calibration curve with standards in the 0.05-50 ppb

[6] = Molar conductivity in acetonitrile; assay type: physicochemical; conditions: 1 mM in acetonitrile, 25 °C
Protocol: The molar conductivity (ΛM, reported as S·cm2·mol–1) of solutions of 11CA in acetonitrile (1 mM) were measured in a Radiometer Copenhagen CDM92 equipped with a conductivity cell CDC641T glass platinum electrode at room temperature (25 °C). The conductivity of the pure solvent was used as standard controls.
Table S3. Solubility in water at 25 °C, n-octanol/water partition coefficient and molar conductivity of the 11CA. * below limit of detection = 5 ppt.

[7] = n-octanol/water partition coefficient (shake-flask, ICP-MS)
Protocol: The saturated solutions were filtered
(DigiPREP Jr. 15ml, 40 Pos, SCP Science). The digestion program was the following: 15
After the digestion, the sample
Samples were further diluted
range. All measurements were performed in triplicates.
lipophilicity of a compound. This assay was performed following the Shake-flask method
organic and aqueous phase. Aliquots of each phase were taken and analyzed separately
range. The partition coefficient was calculated as P!"=
respectively. All measurements were performed in triplicates.

[8] = Stability in solution (ESI-MS, NMR); conditions: 100% d6-DMSO, 1 mM, 72 h
Protocol: The stability of 11CA under pseudo-physiological conditions was assessed using ESI-MS and ^1H and ^31P NMR spectroscopy.
Stability studies were performed on 11CA over 72 h at 37 °C.
The stability of 11Cl was also monitored over
72 h via 1H and 31P NMR spectroscopy. The complex was fully dissolved in d6-DMSO,
diluted with D2O to reach 10% d6-DMSO in D2O (1 mM final concentration) and, finally,
the pD was adjusted to 7.2 ± 0.1 (neutral conditions). Furthermore, the stability of 11Cl
and 11BPh4 was also assessed in 100% d6-DMSO (1 mM final concentration) as a highly

MDA-MB-231 [9] = conditions: literature value ref 44; read-out: cytotoxicity (IC50) MDA-MB-231; cited from earlier work
MCF-7 [10] = conditions: literature value ref 43; read-out: cytotoxicity (IC50) MCF-7; cited from earlier work
[11] = 24 h exposure, read-out: IC50 (µM) (average ± standard deviation) 24 h L929
[12] = 72 h exposure, read-out: IC50 (μM) (average ± standard deviation) 72 h L929
[13] = 24 h exposure, read-out: IC50 (µM) (average ± standard deviation) 24 h MCF-7
[14] = 72 h exposure, read-out: IC50 (μM) (average ± standard deviation) 72 h MCF-7
[15] = 24 h exposure, read-out: IC50 (µM) (average ± standard deviation) 24 h MDA-MB-231
[16] = 72 h exposure, read-out: IC50 (μM) (average ± standard deviation) 72 h MDA-MB-231

Row | SMILES | SI (selectivity index) (L929; 24 h) | IC50 (L929; [11]) [µM] | SI (selectivity index) (L929; 72 h) | IC50 (L929; [12]) [µM] | IC50 (MCF-7 [1]; [13]) [µM] | IC50 (MCF-7 [1]; [14]) [µM] | IC50 (MDA-MB-231 [2]; [15]) [µM] | IC50 (MDA-MB-231 [2]; [16]) [µM] | LogPow [3] | average apoptosis percentage, MDA-MB-231 cells (MDA-MB-231 [4]) [%] | Solubility (μM) [5] | Solubility (μg/mL) [5] | Conductivity (molar conductivity) [6] [S·cm2/mol] | LogPow [7] | stability in DMSO (NMR) [8] | IC50 (MDA-MB-231 [9]) [µM] | IC50 (MCF-7 [10]) [µM]
1 | Cc1ccccc1.[Cl][Ru]([Cl])[PH]12CN3CN(CN(C3)C1)C2 [Compound 4] | 1.7 | 723 ± 29 | 1.0 | 79 ± 4 | 474 ± 19 | 68 ± 7 | 384 ± 16 | 83 ± 4 | −1.5 | – | – | – | – | – | – | – | –
2 | Cc1ccc(C(C)C)cc1.[Cl][Ru]([Cl])[PH]12CN3CN(CN(C3)C1)C2 [Compound 5] | 1.2 | 612 ± 30 | 1.3 | 84 ± 4 | 526 ± 19 | 57 ± 5 | 497 ± 12 | 71 ± 4 | > −1.8 | – | – | – | – | – | – | – | –
3 | Cc1cccc[c]1[Ru+]([Cl])([PH]12CN3CN(CN(C3)C1)C2)[PH](c1ccccc1)(c1ccccc1)c1ccccc1.F[P-](F)(F)(F)(F)F (centres unmarked) [Compound 10] | 0.6 | 74 ± 5 | 10.5 | 31 ± 3 | 128 ± 30 | 3.1 ± 0.2 | 113 ± 14 | 2.8 ± 0.2 | – | 41 | 547 ± 117 µM | 475 ± 102 µg/mL | – | – | – | – | –
4 | Cc1cccc[c]1[Ru+]([Cl])([PH](c1ccccc1)(c1ccccc1)c1ccccc1)[PH](c1ccccc1)(c1ccccc1)c1ccccc1.c1ccc([B-](c2ccccc2)(c2ccccc2)c2ccccc2)cc1 [Compound 11BPh4] | 0.8 | 59 ± 5 | 3.5 | 3.9 ± 0.3 | 51 ± 5 | 0.52 ± 0.06 | 100 ± 8 | 1.7 ± 0.3 | – | 33 | below LOD | below LOD | 71 | > 3.5 | No changes were observed | – | –
5 | Cc1cccc[c]1[Ru+]([Cl])([PH](c1ccccc1)(c1ccccc1)c1ccccc1)[PH](c1ccccc1)(c1ccccc1)c1ccccc1.O=[N+]([O-])[O-] [Compound 11NO3] | 0.7 | 3.7 ± 0.4 | 11.1 | 1.04 ± 0.05 | 5.9 ± 0.5 | 0.078 ± 0.005 | 4.6 ± 0.3 | 0.109 ± 0.009 | – | – | 268 ± 42 µM | 218 ± 34 µg/mL | 141 | 1.57 ± 0.29 | – | – | –
6 | Cc1cccc[c]1[Ru+]([Cl])([PH](c1ccccc1)(c1ccccc1)c1ccccc1)[PH](c1ccccc1)(c1ccccc1)c1ccccc1.O=S(=O)([O-])C(F)(F)F [Compound 11OTf] | 1.5 | 5.8 ± 0.7 | 1.8 | 1.8 ± 0.2 | 4 ± 1 | 0.6 ± 0.07 | 4 ± 2 | 1.4 ± 0.1 | – | 40 | 1.1 ± 0.1 µM | 1.0 ± 0.1 µg/mL | 173 | 1.75 ± 0.18 | – | – | –
7 | Cc1cccc[c]1[Ru+]([Cl])([PH](c1ccccc1)(c1ccccc1)c1ccccc1)[PH](c1ccccc1)(c1ccccc1)c1ccccc1.F[P-](F)(F)(F)(F)F [Compound 11PF6] | 2.5 | 10 ± 1 | 1.1 | 0.17 ± 0.01 | 3 ± 0.3 | 0.15 ± 0.01 | 5 ± 0.1 | 0.16 ± 0.01 | – | – | 0.6 ± 0.2 µM | 0.6 ± 0.2 µg/mL | 150 | 1.91 ± 0.23 | – | – | –
8 | Cc1cccc[c]1[Ru+]([Cl])([PH](c1ccccc1)(c1ccccc1)c1ccccc1)[PH](c1ccccc1)(c1ccccc1)c1ccccc1.[F][Sb-]([F])([F])([F])([F])[F] [Compound 11SbF6] | 0.4 | 7 ± 0.4 | 12.8 | 1.35 ± 0.09 | 11 ± 2 | 0.08 ± 0.01 | 21 ± 2 | 0.131 ± 0.009 | – | 95 | below LOD | below LOD | 186 | 2.01 ± 0.07 | – | – | –
9 | N.N.O=C([O-])C1(C(=O)[O-])CCC1.[Pt+2] [carboplatin] | – | – | – | – | – | – | – | – | – | – | – | – | – | – | – | 15.4 ± 3.3 | 27.3
